Laboratory results published in patent US12357607B2, “Compositions and methods for intravenous administration of 2-bromo-1-(3,3-dinitroazetidin-1-yl)ethanone” (EpicentRx, Inc., priority 2016, dated 2025).

Assay: Phase 1 dose-escalation study: intravenous aqueous solution of ABDNAZ; safety, tolerability, adverse events
Type: in vivo, human
Method: An aqueous solution of ABDNAZ was intravenously administered to twenty-five human patients as part of a Phase I clinical study. The aqueous solution contained ABDNAZ (2 mg/mL), polyethylene glycol having a number average molecular weight of 400 g/mol (6% w/w), dimethylacetamide (3% w/w), and water for injection. Patients were administered a volume of the aqueous solution of ABDNAZ sufficient to deliver a dose of ABDNAZ in the amount of 10 mg/m^2, 16.7 mg/m^2, 24.6 mg/m^2, 33 mg/m^2, 55 mg/m^2, or 83 mg/m^2. Pain at the injection site due to administration of the aqueous solution of ABDNAZ was experienced by 84% of patients. […] Thereafter, peripheral intravenous delivery in the antecubital or forearm area was used and a longer duration of time was used to perform the infusion (e.g., ranging from 2 hours to 8 hours, while administering at a rate of 3.5 mL/hour that could be adjusted up or down in 0.5 mL/hour increments based on patients' ability to tolerate the infusion).
In this open-label, human, dose-escalation phase 1 study, a 3+3 dose-escalation design was used to assess safety, tolerability, and pharmacokinetics of ABDNAZ. Patients were enrolled from the University of California-San Diego Moores Cancer Center, La Jolla, CA, USA, and the Sarah Cannon Research Institute, Nashville, TN, USA. […] Previous antineoplastic therapies had to have been discontinued at least 6 weeks before intervention start, and patients could show no residual side-effects of previous therapies. Patients were required to practice effective contraception while receiving ABDNAZ. All patients had evaluable disease. Key exclusion criteria included hypoalbuminaemia (albumin <30 g/L), active brain metastases (although patients with stable brain metastases were eligible), pregnancy or breast feeding, any other clinically significant illness or psychiatric disorder that could affect compliance or endpoint assessments, and concurrent use of any other investigational drugs.
Screening assessments were done at the clinical site less than 16 days before treatment initiation and included an electrocardiogram, urinalysis, Modified Borg Dyspnea Assessment, pulse oximetry, and radiographic tumour measurement. A medical history, physical examination, pregnancy test, performance status, complete blood count, a comprehensive serum chemistry, and urinalysis were done within 16 days of the first dosing.
The protocol was reviewed and approved by the investigational review boards at the Moores Cancer Center and the Sarah Cannon Research Institute. All procedures were performed in accordance with the principles established by the Helsinki Declaration. Patients gave written informed consent for all clinical and research aspects of the study before enrolment, which was done according to national and institutional guidelines.
An aqueous solution of ABDNAZ was intravenously administered to patients. The aqueous solution contained ABDNAZ (2 mg/mL), polyethylene glycol having a number average molecular weight of 400 g/mol (6% w/w), dimethylacetamide (3% w/w), and water for injection. Patients were administered a volume of the aqueous solution of ABDNAZ sufficient to deliver a dose of ABDNAZ in the amount of 10 mg/m^2, 16.7 mg/m^2, 24.6 mg/m^2, 33 mg/m^2, 55 mg/m^2, or 83 mg/m^2. Three patients were given a starting dose of 10 mg/m^2 of ABDNAZ before dose escalation (to 16.7 mg/m^2, 24.6 mg/m^2, 33 mg/m^2, 55 mg/m and 83 mg/m^2), with at least three patients per dose cohort, allowing a 2-week observation period before dose escalation. […] Thereafter, peripheral intravenous delivery in the antecubital or forearm area was used and a longer duration of time was used to perform the infusion (e.g., ranging from 2 hours to 8 hours, while administering at a rate of 3.5 mL/hour that could be adjusted up or down in 0.5 mL/hour increments based on patients' ability to tolerate the infusion). […]

[1] = 10 mg/m^2 dose (n = 6), number of patients
[2] = 16.7 mg/m^2 dose (n = 3), number of patients
[3] = 24.6 mg/m^2 dose (n = 3), number of patients
[4] = 33 mg/m^2 dose (n = 4), number of patients
[5] = 55 mg/m^2 dose (n = 3), number of patients
[6] = 83 mg/m^2 dose (n = 6), number of patients
[7] = twenty-five patients, all dose cohorts
[8] = twenty-five patients, all dose cohorts 10-83 mg/m^2

## O=C(CBr)N1CC([N+](=O)[O-])([N+](=O)[O-])C1 [ABDNAZ, 2-bromo-1-(3,3-dinitroazetidin-1-yl)ethanone]
10 mg/m^2 dose (n = 6)
  Dyspnoea or wheezing, Grade 1-2, share of patients: (17%)
  Infusion-site pain, Grade 1-2, share of patients: (67%)
[1]
  Arm swelling or oedema, Grade 1-2: 0
  Arm swelling or oedema, Grade 3: 0
  Dyspnoea or wheezing, Grade 1-2: 1
  Dyspnoea or wheezing, Grade 3: 0
  Infusion-site pain, Grade 1-2: 4
  Infusion-site pain, Grade 3: 0
  Mouth tingling or burning, Grade 1-2: 0
  Mouth tingling or burning, Grade 3: 0
  Vein hardening, Grade 1-2: 0
  Vein hardening, Grade 3: 0
16.7 mg/m^2 dose (n = 3)
  Arm swelling or oedema, Grade 1-2, share of patients: (33%)
  Infusion-site pain, Grade 1-2, share of patients: (100%)
[2]
  Arm swelling or oedema, Grade 1-2: 1
  Arm swelling or oedema, Grade 3: 0
  Dyspnoea or wheezing, Grade 1-2: 0
  Dyspnoea or wheezing, Grade 3: 0
  Infusion-site pain, Grade 1-2: 3
  Infusion-site pain, Grade 3: 0
  Mouth tingling or burning, Grade 1-2: 0
  Mouth tingling or burning, Grade 3: 0
  Vein hardening, Grade 1-2: 0
  Vein hardening, Grade 3: 0
24.6 mg/m^2 dose (n = 3)
  Infusion-site pain, Grade 1-2, share of patients: (33%)
[3]
  Arm swelling or oedema, Grade 1-2: 0
  Arm swelling or oedema, Grade 3: 0
  Dyspnoea or wheezing, Grade 1-2: 0
  Dyspnoea or wheezing, Grade 3: 0
  Infusion-site pain, Grade 1-2: 1
  Infusion-site pain, Grade 3: 0
  Mouth tingling or burning, Grade 1-2: 0
  Mouth tingling or burning, Grade 3: 0
  Vein hardening, Grade 1-2: 0
  Vein hardening, Grade 3: 0
33 mg/m^2 dose (n = 4)
  Arm swelling or oedema, Grade 2, share of patients: (25%)
  Infusion-site pain, Grade 2, share of patients: (75%)
  Infusion-site pain, Grade 3, share of patients: (25%)
  Vein hardening, Grade 2, share of patients: (25%)
[4]
  Arm swelling or oedema, Grade 2: 1
  Arm swelling or oedema, Grade 3: 0
  Dyspnoea or wheezing, Grade 2: 0
  Dyspnoea or wheezing, Grade 3: 0
  Infusion-site pain, Grade 2: 3
  Infusion-site pain, Grade 3: 1
  Mouth tingling or burning, Grade 2: 0
  Mouth tingling or burning, Grade 3: 0
  Vein hardening, Grade 2: 1
  Vein hardening, Grade 3: 0
55 mg/m^2 dose (n = 3)
  Arm swelling or oedema, Grade 1-2, share of patients: (67%)
  Dyspnoea or wheezing, Grade 1-2, share of patients: (33%)
  Infusion-site pain, Grade 1-2, share of patients: (100%)
  Mouth tingling or burning, Grade 1-2, share of patients: (67%)
  Vein hardening, Grade 1-2, share of patients: (33%)
[5]
  Arm swelling or oedema, Grade 1-2: 2
  Arm swelling or oedema, Grade 3: 0
  Dyspnoea or wheezing, Grade 1-2: 1
  Dyspnoea or wheezing, Grade 3: 0
  Infusion-site pain, Grade 1-2: 3
  Infusion-site pain, Grade 3: 0
  Mouth tingling or burning, Grade 1-2: 2
  Mouth tingling or burning, Grade 3: 0
  Vein hardening, Grade 1-2: 1
  Vein hardening, Grade 3: 0
83 mg/m^2 dose (n = 6)
  Arm swelling or oedema, Grade 1-2, share of patients: (67%)
  Dyspnoea or wheezing, Grade 1-2, share of patients: (50%)
  Infusion-site pain, Grade 1-2, share of patients: (100%)
  Mouth tingling or burning, Grade 1-2, share of patients: (33%)
  Vein hardening, Grade 1-2, share of patients: (83%)
[6]
  Arm swelling or oedema, Grade 1-2: 4
  Arm swelling or oedema, Grade 3: 0
  Dyspnoea or wheezing, Grade 1-2: 3
  Dyspnoea or wheezing, Grade 3: 0
  Infusion-site pain, Grade 1-2: 6
  Infusion-site pain, Grade 3: 0
  Mouth tingling or burning, Grade 1-2: 2
  Mouth tingling or burning, Grade 3: 0
  Vein hardening, Grade 1-2: 5
  Vein hardening, Grade 3: 0
All dose cohorts 10-83 mg/m^2
  Pain at the injection site, grade: mostly grade 1 and grade 2
Highest dose cohort (83 mg/m^2)
  Patients needing dose reduction to 33 mg/m^2 because of localized infusion pain: Three
Limited by time constraints related to management of infusion pain
  Maximally feasible dose: 83 mg/m^2
Penultimate dose cohort (55 mg/m^2)
  Patients needing dose reduction to 33 mg/m^2 because of localized infusion pain: one
[7]
  Arm swelling or oedema, number of patients: eight
  Arm swelling or oedema, share of patients: 32%
  Vein hardening, number of patients: seven
  Vein hardening, share of patients: 28%
[8]
  Pain at the injection site, number of patients: 21 patients
  Pain at the injection site, share of patients: 84%
